Assay results taken from patent US8263656B2 (Hoffmann-La Roche Inc., priority 2008, dated 2012).

Experiments:
human CRTH2 = biological target: T1, human CRTH2 (Homo sapiens, UniProt Q9Y5Y4); assay: Human CRTH2 Receptor Binding Assay (whole cell, [3H]ramatroban competition); settings: CHO-K1 cells expressing human CRTH2 and G-alpha16; 20 nM [3H]ramatroban; 1 hour, room temperature
T1 construct: expressed in transfected cells
T1 sequence (Q9Y5Y4 1-395): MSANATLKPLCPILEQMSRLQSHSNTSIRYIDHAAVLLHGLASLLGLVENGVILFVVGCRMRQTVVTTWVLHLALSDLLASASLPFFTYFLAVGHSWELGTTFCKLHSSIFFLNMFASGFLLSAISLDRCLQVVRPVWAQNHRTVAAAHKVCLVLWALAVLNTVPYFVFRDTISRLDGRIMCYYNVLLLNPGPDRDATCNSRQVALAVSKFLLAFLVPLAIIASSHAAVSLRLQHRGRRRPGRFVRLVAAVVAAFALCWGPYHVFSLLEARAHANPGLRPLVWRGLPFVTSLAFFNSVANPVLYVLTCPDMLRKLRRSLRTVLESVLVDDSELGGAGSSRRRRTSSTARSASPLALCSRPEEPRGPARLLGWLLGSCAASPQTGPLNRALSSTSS
Excerpt: A whole cell receptor binding assay using [^3H]ramatroban as the competing radioactive ligand was employed to evaluate the compound binding activity to human CRTH2. The radioactive ligand [^3H]ramatroban was synthesized according to Sugimoto et. al. (Eur. J. Pharmacol. 524, 30-37, 2005) to a specific activity of 42 Ci/mmol.
A cell line stably expressing human CRTH2 was established by transfecting CHO-K1 cells with two mammalian expression vectors that harbored human CRTH2 and G-alpha16 cDNAs, respectively, using FuGene® 6 transfection reagent (from Roche). Stable clones expressing CRTH2 were selected by staining each clone with BM16 (BD Pharmingen™ from BD Biosciences, a division of Becton, Dickinson and Company), which is a rat monoclonal antibody to human CRTH2. The cells were maintained as monolayer cultures in Ham's F-12 medium containing 10% fetal bovine serum, 100 units/mL penicillin, […] streptomycin, 2 mM glutamine, 0.5 mg/mL G418 (geneticin) for CRTH2, and 0.2 mg/mL hygromycin-B (for G-alpha 16). For whole cell receptor binding assay, the monolayer cells were rinsed once with PBS (phosphate buffered saline), dissociated using diammonium ethylenediaminetetraacetate (Versene™ EDTA from the Dow Chemical Company), and suspended in PBS containing 10 mM MgCl2 and 0.06% BSA (bovine serum albumin) at 1.5×10^6 cells/mL.
The binding reactions (0.2 mL) were performed in 96-well plates at room temperature in PBS containing 1.5×10^5 cells, 10 mM MgCl2, 0.06% BSA, 20 nM [^3H]ramatroban, and test compound at various concentrations. After 1 hour of binding reactions, the cells were harvested on GF™/B filter microplates (microtiter plates with embedded glass fiber from PerkinElmer, Inc.) and washed 5 times with PBS using a Filtermate™ Harvester (a cell harvester that harvests and washes cells from microplates from PerkinElmer, Inc.). The radioactivities bound to the cells were determined using a microplate scintillation counter (TopCount® NXT, from PerkinElmer, Inc.) after adding 50 μL of Microscint™ 20 scintillation fluid (from PerkinElmer, Inc.) to each well of the filter plates. The radioactivity from non-specific binding was determined by replacing compound with 10 μM of 15(R)-15-methyl PGD2 (from Cayman Chemical Company) in the reaction mixtures. The radioactivity bound to the cells in the absence of compound (total binding) was determined by replacing compound with 0.25% of DMSO (dimethyl sulfoxide) in the reaction mixture. Specific binding data were obtained by subtracting the radioactivity of non-specific binding from each binding data.
The IC50 value is defined as the concentration of the tested compound that is required for 50% inhibition of total specific binding. In order to calculate the IC50 value, the percent inhibition data were determined for 7 concentrations for each compound. The percent inhibition for a compound at each concentration was calculated according to the following formula, [1-(specific binding in the presence of compound)/(total specific binding)]×100. The IC50 value was then obtained by fitting the percent inhibition data to a sigmoidal dose-response (4 parameter logistic) model in the XLfit® software Excel add-in program [from ID Business Solutions Ltd., model 205, where F(x)=(A+(B−A)/(1+((C/x)^D)))].

[1] = test system: DK-PGD2-induced IL-13 production in T helper type 2 (Th2) cells; assay: DK-PGD2-Induced IL-13 Production Assay in Th2 Cells; assay type: cell-based; settings: human Th2 cells, 500 nM DK-PGD2, 4 hrs at 37° C., ELISA; unit inferred; read-out: IC50 of inhibiting IL-13 production (values greater than 10)
Method: Inhibition of 13,14-dihydro-15-keto Prostaglandin D2 (DK-PGD2)-induced IL-13 production in T helper type 2 (Th2) cells was applied to evaluate compound cellular potency.
Cultures of Th2 cells were established from blood of healthy human volunteers according to the following procedure. Peripheral blood mononuclear cells (PBMC) were first isolated from 50 mL of fresh blood by Ficoll-Hypaque density gradient centrifugation, followed by CD4^+ cell purification using a CD4^+ T Cell Isolation Kit II (from Miltenyi Biotec Inc.). The CD4^+ T cells were then differentiated to Th2 cells by culturing the cells in X-VIVO 15® medium (from Cambrex BioScience Walkersville Inc.) containing 10% human AB serum (serum of blood type AB from Invitrogen Corporation), 50 U/mL of recombinant human interleukin-2 (rhIL-2) (from PeproTech Inc.) and 100 ng/mL of recombinant human interleukin-4 (rhIL-4) (from PeproTech Inc.) for 7 days. The Th2 cells were isolated using a CD294 (CRTH2) MicroBead Kit (from Miltenyi Biotec Inc.) and amplified in X-VIVO 15® medium containing 10% human AB serum and 50 U/mL of rhIL-2 for 2 to 5 weeks. In general, 70% to 80% of the Th2 cells used in the assay are CRTH2-positive when analyzed by fluorescence-activated cell sorting using the BM16 antibody (as previously described) conjugated to phycoerythrin (PE).
The spontaneous production of IL-13 by Th2 cells was determined in the absence of DK-PGD2 stimulation and the value was subtracted from that in the presence of each compound for percent inhibition and IC50 calculations.
The percent inhibition of interleukin 13 (IL-13) production for a compound at various concentrations was calculated according to the following formula, [1-(IL-13 production in the presence of compound)/(IL-13 production in the presence of 0.15% DMSO)]×100. The IC50 value, defined as the concentration of a compound that is required for 50% inhibition of IL-13 production, was calculated by fitting the percent inhibition data for 7 concentrations to a sigmoidal dose-response (4 parameter logistic) model in the XLfit® software Excel add-in program [ID Business Solutions Ltd., model 205, where F(x)=(A+(B−A)/(1+((C/x)^D)))].

Row | Compound | IC50 (human CRTH2) [nM] | IC50 [1] [nM]
1 | CN(C1CCCc2c1cc(Cl)c(F)c2OCC(=O)O)S(=O)(=O)c1cc(Cl)ccc1Cl (stereo not shown) [Example 2-9, {3-Chloro-5-[(2,5-dichloro-benzenesulfonyl)-methyl-amino]-2-fluoro-5,6,7,8-tetrahydro-naphthalen-1-yloxy}-acetic acid] | 1160 | 
2 | CN(C1CCCc2c(OCC(=O)O)cc(Cl)cc21)S(=O)(=O)c1cc(Cl)ccc1Cl (stereo not shown) [Example 2-10, {3-Chloro-5-[(2,5-dichloro-benzenesulfonyl)-methyl-amino]-5,6,7,8-tetrahydro-naphthalen-1-yloxy}-acetic acid] | 859 | 
3 | CN(C1CCCc2c1cc(Cl)c(F)c2OCC(=O)O)S(=O)(=O)c1ccc(Cl)cc1Cl (stereo not shown) [Example 2-11, {3-Chloro-5-[(2,4-dichloro-benzenesulfonyl)-methyl-amino]-2-fluoro-5,6,7,8-tetrahydro-naphthalen-1-yloxy}-acetic acid] | 536 | > 10000
4 | CN(C1CCCc2c1cc(Cl)c(F)c2OCC(=O)O)S(=O)(=O)c1cc(Br)cc(C(F)(F)F)c1 (stereo not shown) [Example 2-12, {5-[(3-Bromo-5-trifluoromethyl-benzenesulfonyl)-methyl-amino]-3-chloro-2-fluoro-5,6,7,8-tetrahydro-naphthalen-1-yloxy}-acetic acid] | 12.3 | 
5 | CN(C1CCCc2c(OCC(=O)O)cc(Cl)cc21)S(=O)(=O)c1cc(Br)cc(C(F)(F)F)c1 (stereo not shown) [Example 2-13, {5-[(3-Bromo-5-trifluoromethyl-benzenesulfonyl)-methyl-amino]-3-chloro-5,6,7,8-tetrahydro-naphthalen-1-yloxy}-acetic acid] | 6.2 | 
6 | CN(C1CCCc2c(OCC(=O)O)cc(Cl)cc21)S(=O)(=O)c1cc(F)cc(C(F)(F)F)c1 (stereo not shown) [Example 2-14, {3-Chloro-5-[(3-fluoro-5-trifluoromethyl-benzenesulfonyl)-methyl-amino]-5,6,7,8-tetrahydro-naphthalen-1-yloxy}-acetic acid] | 11.2 | 
7 | CN(C1CCCc2c1cc(Cl)c(F)c2OCC(=O)O)S(=O)(=O)c1cc(F)cc(C(F)(F)F)c1 (stereo not shown) [Example 2-15, {3-Chloro-2-fluoro-5-[(3-fluoro-5-trifluoromethyl-benzenesulfonyl)-methyl-amino]-5,6,7,8-tetrahydro-naphthalen-1-yloxy}-acetic acid] | 14.1 | 
8 | CN(C1CCCc2c1cc(F)c(F)c2OCC(=O)O)S(=O)(=O)c1ccc(Cl)cc1Cl (stereo not shown) [Example 2-18, {5-[(2,4-Dichloro-benzenesulfonyl)-methyl-amino]-2,3-difluoro-5,6,7,8-tetrahydro-naphthalen-1-yloxy}-acetic acid] | 2520 | 
9 | CN(C1CCCc2c(OCC(=O)O)cc(F)cc21)S(=O)(=O)c1cc(Cl)ccc1Cl (stereo not shown) [Example 2-19, {55-[(2,5-Dichloro-benzenesulfonyl)-methyl-amino]-3-fluoro-5,6,7,8-tetrahydro-naphthalen-1-yloxy}-acetic acid] | 2640 | 
10 | CN(C1CCCc2c1cc(F)c(F)c2OCC(=O)O)S(=O)(=O)c1cc(Br)cc(C(F)(F)F)c1 (stereo not shown) [Example 2-20, {5-[(3-Bromo-5-trifluoromethyl-benzenesulfonyl)-methyl-amino]-2,3-difluoro-5,6,7,8-tetrahydro-naphthalen-1-yloxy}-acetic acid] | 288 | 
11 | CN(C1CCCc2c1cc(F)c(F)c2OCC(=O)O)S(=O)(=O)c1cc(Cl)ccc1Cl (stereo not shown) [Example 2-21, {5-[(2,5-Dichloro-benzenesulfonyl)-methyl-amino]-2,3-difluoro-5,6,7,8-tetrahydro-naphthalen-1-yloxy}-acetic acid] | 2100 | 
12 | CN(C1CCCc2c(OCC(=O)O)cc(F)cc21)S(=O)(=O)c1cc(Br)cc(C(F)(F)F)c1 (stereo not shown) [Example 2-22, {5-[(3-Bromo-5-trifluoromethyl-benzenesulfonyl)-methyl-amino]-3-fluoro-5,6,7,8-tetrahydro-naphthalen-1-yloxy}-acetic acid] | 5.4 | 
13 | CN(C1CCCc2c(OCC(=O)O)cc(F)cc21)S(=O)(=O)c1cc(F)cc(C(F)(F)F)c1 (stereo not shown) [Example 2-23, {3-Fluoro-5-[(3-fluoro-5-trifluoromethyl-benzenesulfonyl)-methyl-amino]-5,6,7,8-tetrahydro-naphthalen-1-yloxy}-acetic acid] | 198 | 

Now from value to molecule:

Row | IC50 (human CRTH2) [nM] | IC50 [1] [nM] | Compound
14 | 195 | > 10000 | CC(C)c1ccc2c(c1OCC(=O)O)CCCC2NS(=O)(=O)c1cc(C(F)(F)F)cc(C(F)(F)F)c1 (stereo not shown) [Example 1-2, [5-(3,5-Bis-trifluoromethyl-benzenesulfonyl-amino)-2-isopropyl-5,6,7,8-tetrahydro-naphthalen-1-yloxy]-acetic acid]
15 | 311 | > 10000 | Cc1ccc2c(c1OCC(=O)O)CCCC2N(C)S(=O)(=O)c1cc(C(F)(F)F)cc(C(F)(F)F)c1 (stereo not shown) [Example 2-2, {5-[(3,5-Bis-trifluoromethyl-benzenesulfonyl)-methyl-amino]-2-methyl-5,6,7,8-tetrahydro-naphthalen-1-yloxy}-acetic acid]
16 | 177 | > 10000 | CCc1ccc2c(c1OCC(=O)O)CCCC2N(C)S(=O)(=O)c1cc(C(F)(F)F)cc(C(F)(F)F)c1 (stereo not shown) [Example 2-3, {5-[(3,5-Bis-trifluoromethyl-benzenesulfonyl)-methyl-amino]-2-ethyl-5,6,7,8-tetrahydro-naphthalen-1-yloxy}-acetic acid]
17 | 199 |  | CN(C1CCCc2c1ccc(F)c2OCC(=O)O)S(=O)(=O)c1cc(C(F)(F)F)cc(C(F)(F)F)c1 (stereo not shown) [Example 2-17]
18 | 380 |  | CN(C1CCCc2c1cc(F)c(F)c2OCC(=O)O)S(=O)(=O)c1cc(F)cc(C(F)(F)F)c1 (stereo not shown) [Example 2-24, {2,3-Difluoro-5-[(3-fluoro-5-trifluoromethyl-benzenesulfonyl)-methyl-amino]-5,6,7,8-tetrahydro-naphthalen-1-yloxy}-acetic acid]
